Data taken from ChEMBL document CHEMBL1144091, “Isolation of two highly methylated polyketide derivatives from a yew-associated penicillium species” (J Nat Prod, 1999).
Active and inactive are the calls of the source. The rule behind the calls is not given here.

Columns and labels:
Sclerotinia sclerotiorum [1] = test: Antifungal activity against Sclerotinia sclerotiorum at 0.00034 uM/disk after 96 hrs; assay type: functional; conditions: read-out: IZ
Candida albicans = test: Antifungal activity against Candida albicans at 500 ug/disk; assay type: functional, organism-based
Helminthosporium = test: Antifungal activity against Helminthosporium sativum at 500 ug/disk; assay type: functional, organism-based
Geotrichum candidum = test: Antifungal activity against Geotrichum candidum at 500 ug/disk; assay type: functional, organism-based
Aspergillus flavus = test: Antifungal activity against Aspergillus flavus at 500 ug/disk; assay type: functional, organism-based
Aspergillus niger = test: Antifungal activity against Aspergillus niger at 500 ug/disk; assay type: functional, organism-based
Fusarium oxysporum = test: Antifungal activity against Fusarium oxysporum at 500 ug/disk; assay type: functional, organism-based
Artemia = test: Toxicity against brine shrimp at 500 ug/mL; assay type: organism-based; conditions: in vivo
Sclerotinia sclerotiorum [2] = test: Antifungal activity against Sclerotinia sclerotiorum at 0.00011 uM/disk after 96 hrs; assay type: functional; conditions: read-out: IZ

CC1=C[C@H]2C[C@H](C)[C@@H](O)[C@H](C)[C@H]2[C@H](/C=C(C)/C=C(C)\C=C\C(=O)O)/C1=C\C(=O)CO
zone of inhibition at 0.00034 µM (Sclerotinia sclerotiorum [1]): 16 mm
Activity (Candida albicans): inactive
Activity (Helminthosporium): inactive
Activity (Geotrichum candidum): inactive
Activity (Aspergillus flavus): inactive
Activity (Aspergillus niger): inactive
Activity (Fusarium oxysporum): inactive
Activity (Artemia): Non-toxic

CC1=C[C@H]2C[C@H](C)[C@@H](O)[C@H](C)[C@H]2[C@H](/C=C(C)/C=C(C)/C=C/C(=O)O)/C1=C\C(=O)CO
zone of inhibition at 0.00011 µM (Sclerotinia sclerotiorum [2]): 17 mm
Activity (Candida albicans): inactive
Activity (Helminthosporium): inactive
Activity (Geotrichum candidum): inactive
Activity (Aspergillus flavus): inactive
Activity (Aspergillus niger): inactive
Activity (Fusarium oxysporum): inactive
Activity (Artemia): Non-toxic
